Where two headings read alike, the source gives them in different places.
Key:
[1] = system: A. baumannii; assay: MIC, A. baumannii; assay type: cell-based, Acinetobacter baumannii; conditions: Acinetobacter baumannii, read-out: MIC of MM
Procedure: (§1) The appropriate volume of an MM stock at 8 mM necessary to achieve a concentration ranging from 0.3125 to 40 μM was pipetted into a 2 mL microcentrifuge tube to which 1 mL of cell suspension prepared as previously described was added. Corresponding negative controls (DMSO only) were prepared in the same way. The mixture was gently mixed by pipetting and incubated in the dark at 30 or 37 ° C, depending on the strain, for 30 min with agitation (220 rpm). Afterward, MM- or DMSO-treated cells were dispensed in one well of a 24-well plate positioned in the center of the light beam (405 nm LED Light, Prizmatix, UHP—F-5-405) placed at the appropriate distance necessary to achieve the desired light intensity of 304 mW cm-2, 146 mW cm2 or 87 mW cm2, as measured with a handheld digital power meter console coupled to an S415C thermal power sensor head (Thorlabs, Newton, MA, USA). The temperature during irradiation was monitored using a thermocouple probe (Model SC-TT-K-30-36-PP; Omega Engineering, Inc., Stanford, CT, USA). Samples were agitated during irradiation. Dark controls were prepared as previously described except that no irradiation was provided.
(§2) For MIC determination, samples treated with a range of concentrations of the different MM, as described above and were irradiated one at a time for 5 min at 146 mW cm^−2 (43.8 J cm^−2), after which irradiated aliquots were collected and inoculated into 1 mL MHB in a 2 mL microcentrifuge tube. Samples were incubated overnight at 30 or 37 ° C, depending on the strain, without agitation. Corresponding non-irradiated samples and negative controls (without bacteria) were also included. The following day, cultures were inspected for growth and the MIC was identified. The experimental procedure used to determine the MIC of visible light-activated MMs is schematically depicted in FIG. 26.

[2] = system: persister cells of P. aeruginosa; assay: Persister eradication, P. aeruginosa; assay type: cell-based, Pseudomonas aeruginosa; conditions: 1×MIC, 405 nm
[3] = system: S. aureus; assay: MIC, S. aureus; assay type: cell-based, Staphylococcus aureus; conditions: Staphylococcus aureus, read-out: MIC of MM
Procedure: as §1, §2

[4] = system: persister cells of S. aureus; assay: Persister eradication, S. aureus; assay type: cell-based, Staphylococcus aureus; conditions: 1×MIC, 405 nm
Procedure: (§3) Persister cells of E. coli were prepared by adding ampicillin (100 μg mL^−1) to exponential-phase cells (OD600 of ≈0.8) followed by continuous agitation for another 3 b, as previously described (Keren et al., 2004). In the case of S. aureus, almost all stationary-phase are considered to be persistent (Keren et al., 2004). S. aureus cells were grown at 37 ° C and 220 rpm in LB broth to an OD600 of 0.3. Cells were then diluted 1:1000 in 25 mL LB and grown for 16 h at 37 ° C and 220 rpm in 250 mL flasks. […] At specified time points (0, 1, 2, 3, 4 and 5, 10 and 15 min), 50-μL aliquots were removed, serially diluted and spot-plated onto LB agar plates to determine colony-forming units per mL (CFU mL^−1). Only dilutions that yielded 10-100 colonies were counted. Results were expressed as log (N/NO) whereby N is the CFU mL^−1 at each irradiation time point and NO is the initial CFU mL^−1 of the corresponding sample. […].

[5] = system: P. aeruginosa; assay: MIC, P. aeruginosa; assay type: cell-based, Pseudomonas aeruginosa; conditions: Pseudomonas aeruginosa, read-out: MIC of MM
Procedure: as §1, §2

[6] = system: E. coli; assay: MIC, E. coli; assay type: cell-based, Escherichia coli BW25113; conditions: Escherichia coli, read-out: MIC of MM
[7] = system: persister cells of E. coli; assay: Persister eradication, E. coli; assay type: cell-based, Escherichia coli; conditions: 1×MIC, 405 nm
Procedure: as §3

[8] = system: S. aureus; assay: Time-kill / light-dose experiments, S. aureus; assay type: cell-based, Staphylococcus aureus; conditions: 2×MIC, 146 mW cm^−2 405 nm
Procedure: (§4) Serial dilutions of irradiated cell suspensions were prepared in PBS. A volume of 10 AL of the appropriate serial dilutions was spot-plated onto LB agar plates. Following overnight incubation at 30 or 37 ° C, depending on the strain, bacterial viability was assessed as colony forming units (CFU) per mL. Results were expressed as log (N/NO) whereby N is the CFU mL^−1 at each irradiation time point and NO is the initial CFU mL^−1 of the corresponding sample. Only dilutions that yielded 10-100 colonies were counted.

[9] = system: E. coli; assay: Time-kill / light-dose experiments, E. coli; assay type: cell-based, Escherichia coli; conditions: for time to reduce cell number to limit of detection: E. coli, 2×MIC, 146 mW cm^−2 405 nm
Procedure: as §4

[10] = system: A. baumannii; assay: Time-kill / light-dose experiments, A. baumannii; assay type: cell-based, Acinetobacter baumannii; conditions: 2×MIC, 146 mW cm^−2 405 nm
Procedure: as §4

[11] = system: P. aeruginosa; assay: Time-kill / light-dose experiments, P. aeruginosa; assay type: cell-based, Pseudomonas aeruginosa; conditions: 2×MIC, 146 mW cm^−2 405 nm
Procedure: as §4

[12] = system: C. albicans; assay: MIC, visible-light-activated MMs and conventional antifungals, C. albicans; assay type: cell-based, Candida albicans (ATCC 18804); conditions: Candida albicans, read-out: MIC of antifungal agent
Procedure: C. albicans cell suspensions were incubated with increasing concentrations of MMs and irradiated with 405-nm light at 292 mW cm^−2 for 5 min (87.6 J cm^−2). The minimum inhibitory concentration (MIC) was defined as the MM concentration resulting in no visible fungal growth after irradiation with 87.6 J cm^−2 of 405-nm light.
(§5) Cell suspensions for susceptibility testing (MMs and conventional antifungals) were prepared per the Clinical & Laboratory Standards Institute (CLSI) guidelines (CLSI, 2017; CLSI, 2008). Before testing, yeasts (C. albicans and S. cerevisiae) were sub-cultured in Sabouraud Dextrose Agar-Emmons Modification (SDAE) plates and grown for 24 h at 30 °C. Five independent colonies from 24-h-old plates were collected and diluted to ~10^4 colony forming units (CFU) per mL in sterile saline (CLSI, 2017). Molds (A. fumigatus and the dermatophytes T. rubrum and M. gypseum) were sub-cultured on SDAE medium and incubated for 7 days at 28 °C. Conidia were recovered by covering the plates with sterile distilled water and scraping the colonies. The suspensions were filtered (8-μm pore size) and diluted in saline to ~10^4 CFU mL^−1 (Santos and Hamdan, 2005).
(§6) After a 30-min incubation in the dark, cell suspensions were transferred to small, sterilized glass beakers, which were then placed in a water bath. Each sample was irradiated with 405-nm light at 292 mW cm^−2 for 5 min, corresponding to a light dose of 87.6 J cm^−2, determined using an S415C thermal power sensor (Thorlabs, Newton, MA, USA). During irradiation, the cell suspensions were agitated with a small metal stirrer. A thermocouple probe (model SC-TT-K-30-36-PP; Omega Engineering, Inc., Stanford, CT, USA) was used to monitor the temperature during irradiation. Irradiated cell suspensions were inoculated in 3-(N-morpholino) propanesulfonic acid (MOPS)-buffered Roswell Park Memorial Institute Medium (RPMI) 1640 (pH 7.0). Tubes were incubated at 30 ° C for 48 h (yeasts) and 28 ° C for 7 days (molds). The antifungal or MM concentration resulting in no visible growth was defined as the minimum inhibitory concentration (MIC) (CLSI, 2017; CLSI, 2008). Similarly prepared cell suspensions were used to determine the MIC of conventional antifungals.

[13] = system: S. cerevisiae; assay: MIC, MMs and antifungals, S. cerevisiae; assay type: cell-based, Saccharomyces cerevisiae (ATCC 13007); conditions: Saccharomyces cerevisiae, broth microdilution, read-out: MIC of antifungal agent
Procedure: as §5, §6

[14] = system: persister cells of A. baumannii; assay: Persister eradication, A. baumannii; assay type: cell-based, Acinetobacter baumannii; conditions: 1×MIC, 405 nm
[15] = system: E. coli; assay: Effect of ROS scavengers on MM 1-induced killing of E. coli; assay type: cell-based, Escherichia coli; conditions: MM 1 2×MIC, NAC 1 mM, TU 100 mM
Source text: All results are shown as the mean of at least 3 biological replicas±standard error of the mean.

[16] = system: A. fumigatus; assay: MIC, MMs and antifungals, A. fumigatus; assay type: cell-based, Aspergillus fumigatus (ATCC 1022); conditions: Aspergillus fumigatus, read-out: MIC of antifungal agent
Procedure: as §5
After a 30-min incubation in the dark, cell suspensions were transferred to small, sterilized glass beakers, which were then placed in a water bath. Each sample was irradiated with 405-nm light at 292 mW cm^−2 for 5 min, corresponding to a light dose of 87.6 J cm^−2, determined using an S415C thermal power sensor (Thorlabs, Newton, MA, USA). During irradiation, the cell suspensions were agitated with a small metal stirrer. […]

[17] = system: biofilms of P. aeruginosa and S. aureus; assay: Biofilm metabolically active cells (ATP); assay type: cell-based, Pseudomonas aeruginosa, Staphylococcus aureus; conditions: 2×MIC, antibiotics 45 min, MMs 15 min + light, vs untreated
Procedure: (§7) This combination of methods is effective at evaluating the antibiofilm potential of chemicals (Stiefel et al., 2016). P. aeruginosa and S. aureus were grown overnight in tryptic soy broth (TSB) medium. The overnight cultures were diluted in 1:100 in fresh media and 100 μL aliquots were distributed in a 96-well plate. After 24 h of static growth at 37 ° C, planktonic cells were removed by inverting the plate onto a stack of paper towels, and the biofilm was washed three times with PBS. After washing, MM 1, MM 5, or MM 6 were added at 2×MIC to the biofilm and incubated statically in the dark for 60 min. The biofilm was then irradiated for 15, 30, or 45 min at 146 mW cm2. For the determination of the total bacterial number, acridine orange solution (2% in H2O) diluted 1:100 in Walpole's buffer (27.2 g L-1 sodium acetate trihydrate, adjusted to pH 4 with glacial acetic acid) was added to the wells.
For quantification of viable cells in biofilms, following the addition of 100 μL […] of TSB to each well, bacteria were detached from the biofilm by thorough mixing, after which […] of BacTiter-Glo™ reagent, prepared according to the manufacturer's instructions, was added to each well.

[18] = system: biofilms of P. aeruginosa and S. aureus; assay: Biofilm total bacterial cell number (acridine orange); assay type: cell-based, Pseudomonas aeruginosa, Staphylococcus aureus; conditions: 2×MIC, vs untreated controls
Procedure: as §7

[19] = E. coli BW25113, 405 nm light 43.8 J cm^−2
[20] = E. coli, Table 9, 405 nm light 43.8 J cm^−2

Compound | MIC [1] [µM] | MIC [3] [µM] | time to reduce persister cells to limit of detection [4] [min] | MIC [5] [µM] | MIC [6, 20] [µM] | time to reduce persister cells to limit of detection [7] [min] | time to complete elimination [8] [min] | other results
C[C@@H]1Cc2cc(NCCN(C)C)c3ccccc3c2C1=C1c2ccccc2Sc2ccccc21 (stereo in doubt) [MM 2, N^1,N^1-Dimethyl-N^2-(2-methyl-1-(9H-thioxanthen-9-ylidene)-2,3-dihydro-1H-cyclopenta[a]naphthalen-5-yl) ethane-1,2-diamine] | 20 | 1.25 | 3 | 5 | 32 | 5 | 4 | time to reduce persister cells to limit of detection [2]: 15 min; MIC [6, 19]: 32 µM; time to reduce cell number to limit of detection [9]: 10 min
Br.COc1cc2c(c3ccccc13)/C(=C1\c3ccccc3Sc3ccc(C#CCCCC[P+](c4ccccc4)(c4ccccc4)c4ccccc4)cc31)[C@H](C)C2 (stereo in doubt) [MM 4, (6-(9-(5-methoxy-2-methyl-2,3-dihydro-1H-cyclopenta[a]naphthalen-1-ylidene)-9H-thioxanthen-2-yl)hex-5-yn-1-yl)triphenylphosphonium bromide] | 2.5 | 0.078 | 3 | 0.625 | 1 | 5 | 2 | MIC [6, 19]: 0.625 µM; time to reduce cell number to limit of detection [10]: 3 min; time to reduce cell number to limit of detection [11]: 3 min; time to reduce cell number to limit of detection [9]: 4 min; bacterial toxicity in the absence of light ([9]; FIG. 31, different bacterial strains, no light): Some toxicity of the MM itself (in the absence of light)
CC[C@H](C)C[C@H](C)CCCCCCCCC(=O)N[C@H]1C[C@@H](O)[C@@H](NCCN)NC(=O)[C@@H]2[C@@H](O)CCN2C(=O)[C@H]([C@H](O)CCN)NC(=O)[C@H]([C@H](O)[C@@H](O)c2ccc(O)cc2)NC(=O)[C@@H]2C[C@@H](O)CN2C(=O)[C@H]([C@@H](C)O)NC1=O [Caspofungin (CAS), Caspofungin] |  |  |  |  |  |  |  | MIC [12]: 0.25 µg/mL; MIC [13]: 0.5 µg/mL
C[C@@H]1Cc2cc(N(C)CCN(C)C)c3ccccc3c2C1=C1c2ccccc2Sc2ccccc21 [MM 3, N^1,N^1,N^2-trimethyl-N^2-(2-methyl-1-(9H-thioxanthen-9-ylidene) ~2,3-dihydro-1H-cyclopenta[a]naphthalen-5-yl) ethane-1,2-diamine] | 20 | 1.25 | 10 | 5 | 16 | 10 | 4 | time to reduce persister cells to limit of detection [14]: 15 min; time to reduce cell number to limit of detection [10]: 10 min; time to reduce cell number to limit of detection [11]: 10 min
CC(=O)N[C@@H](CS)C(=O)O [N-acetyl-L-cysteine] |  |  |  |  |  |  |  | protection against MM-induced killing by ROS scavenger [15]: does not protect against MM-induced killing in E. coli
C[C@@H](c1ncncc1F)[C@](O)(Cn1cncn1)c1ccc(F)cc1F [Voriconazole (VRC), Voriconazole] |  |  |  |  |  |  |  | MIC [16]: 0.5 µg/mL; MIC [12]: 0.03 µg/mL; MIC [13]: 0.125 µg/mL
CO[C@H]1/C=C/O[C@@]2(C)Oc3c(C)c(O)c4c(O)c(c(/C=N/N5CCN(C)CC5)c(O)c4c3C2=O)NC(=O)/C(C)=C\C=C\[C@H](C)[C@H](O)[C@@H](C)[C@@H](O)[C@@H](C)[C@H](OC(C)=O)[C@@H]1C [rifampin] |  |  |  |  |  |  |  | reduction in metabolically active cells in biofilm [17]: 18%; reduction in total bacterial cell number in biofilm [18]: ≤ 64%
NC(N)=S [thiourea] |  |  |  |  |  |  |  | protection against MM-induced killing by ROS scavenger [15]: does not protect against MM-induced killing in E. coli

— patent US20260355318A1, “MOLECULAR MACHINES FOR TREATMENT OF CANCER, FUNGAL INFECTIONS, OR BACTERIAL INFECTIONS” (priority 2022, published 2026)
